The structures appear in SMILES notation. Numbering of substitutions follows the chain as printed. The source made the active and inactive calls. The rule behind the calls is not given here.

Experiment [1] deals with T1, Heat shock protein 75 kDa, mitochondrial (Homo sapiens) (UniProt Q12931).
T1 sequence (whole entry): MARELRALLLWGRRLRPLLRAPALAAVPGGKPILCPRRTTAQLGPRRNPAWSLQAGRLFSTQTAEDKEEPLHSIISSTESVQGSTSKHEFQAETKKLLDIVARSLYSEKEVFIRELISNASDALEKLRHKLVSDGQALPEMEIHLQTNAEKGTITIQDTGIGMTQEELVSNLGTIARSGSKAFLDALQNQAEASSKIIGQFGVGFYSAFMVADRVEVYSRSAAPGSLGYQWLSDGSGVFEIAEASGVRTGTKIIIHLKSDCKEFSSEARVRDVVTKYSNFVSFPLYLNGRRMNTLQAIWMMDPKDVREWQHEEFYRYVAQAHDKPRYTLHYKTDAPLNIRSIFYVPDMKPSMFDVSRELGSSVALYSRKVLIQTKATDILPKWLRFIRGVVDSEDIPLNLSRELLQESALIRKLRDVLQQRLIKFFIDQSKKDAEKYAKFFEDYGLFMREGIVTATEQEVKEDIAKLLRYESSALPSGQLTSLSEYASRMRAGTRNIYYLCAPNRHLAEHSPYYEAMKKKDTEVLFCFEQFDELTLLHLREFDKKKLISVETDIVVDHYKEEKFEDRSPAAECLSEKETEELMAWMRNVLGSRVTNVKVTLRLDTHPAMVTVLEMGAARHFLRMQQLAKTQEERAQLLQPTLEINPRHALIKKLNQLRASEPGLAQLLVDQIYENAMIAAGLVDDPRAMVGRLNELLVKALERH
Kind of experiment: Stimulation of recombinant wild-type human TRAP1 ATPase activity expressed in Escherichia coli BL21 (DE3) at 2 to 5 uM preincubated for 0.5 hrs followed by 0.2 mM ATP addition and measured after 3 hrs by PiColorLock Gold reagent based colorimetric assay relative to control.

Experiment [2] addresses T1, Heat shock protein 75 kDa, mitochondrial (Homo sapiens). Kind of experiment: Allosteric modulation of recombinant wild-type human TRAP1 ATPase activity expressed in Escherichia coli BL21 (DE3) assessed as increase in substrate Km at 5 uM preincubated for 0.5 hrs followed by varying levels of ATP addition and measured after 3 hrs using PiColorLock Gold reagent by colorimetric assay-based Lineweaver-Burk plot analysis relative to control.

Experiment [3] relates to T2, Heat shock protein 75 kDa, mitochondrial (Homo sapiens), Q12931 [E115Q].
T2 sequence (whole entry): T1 sequence (whole entry) with E115Q
Kind of experiment: Inhibition of recombinant […] human TRAP1 E115Q mutant ATPase activity expressed in Escherichia coli BL21 (DE3) up to 20 uM preincubated for 0.5 hrs followed by ATP addition and measured after 3 hrs by PiColorLock Gold reagent based colorimetric assay.

In experiment [4] the test system is T3, Heat shock protein 75 kDa, mitochondrial (Homo sapiens), Q12931 [R114E,R402Q].
T3 sequence (whole entry): T1 sequence (whole entry) with R114E, R402Q
Kind of experiment: Stimulation of recombinant […] human TRAP1 R114E/R402Q mutant ATPase activity expressed in Escherichia coli BL21 (DE3) up to 20 uM preincubated for 0.5 hrs followed by ATP addition and measured after 3 hrs by PiColorLock Gold reagent based colorimetric assay.

The target in experiment [5] is T1, Heat shock protein 75 kDa, mitochondrial (Homo sapiens). Kind of experiment: Inhibition of TRAP1 in human PC3 cells assessed as loss of mitochondrial membrane potential at 10 uM measured after 2 hrs by TMRM dye based flow cytometry. In kind it is cell-based. The following applies: PC-3. In general terms: A flow cytometer gives signals particle by particle.
Experiment [6] has the same target. Kind of experiment: Inhibition of TRAP1 in human PC3 cells assessed as reduction in ATP concentration at 10 uM measured after 2 hrs. In kind it is cell-based. Particulars: PC-3.
Experiment [7] shares this target. Kind of experiment: Inhibition of TRAP1 in human PC3 cells assessed as increase in CHOP expression at 5 uM measured after 2 to 12 hrs by Western blot analysis. The class given is cell-based. The following applies: PC-3. For orientation: In western blotting, separated proteins are transferred to a membrane and probed.
Experiment [8] deals with Mus musculus. Kind of experiment: In vivo inhibition of TRAP1 in nude mouse xenografted with human NCI-H460 cells assessed as increase in AMPK phosphorylation at 5 mg/kg, ip administered daily by Western blot analysis. The class given is functional, organism-based. (In xenograft studies the graft and the host belong to different species.)

For `Nc1ncnc2c1nc(Sc1cc3c(cc1I)OCO3)n2CCCCCCCCCC[P+](c1ccccc1)(c1ccccc1)c1ccccc1`, the fold change (FC) in experiment [1] worked out at 1.2; in experiment [2] it was 3. Further, the inhibition result in experiment [3], in experiment [5], in experiment [6], in experiment [7] and in experiment [8] was “Active” throughout. Moreover, the result in experiment [4] was inactive.

Values taken from ChEMBL document CHEMBL4602687, “Dual Binding to Orthosteric and Allosteric Sites Enhances the Anticancer Activity of a TRAP1-Targeting Drug” (J Med Chem, 2020).
